The source of these data is patent US4800161A (priority 1984, dated 1989).

As a reminder, the Km is the concentration of substrate that gives half-maximal velocity.

Test [1] has as its target aldose-1-epimerase (mutarotase, EC 5.1.3.3) from Acinetobacter calcoaceticus (Acinetobacter calcoaceticus, UniProt P05149). The method, then:
Principle: [drawing 1] Mutarotase, glucose-dehydrogenase and NAD are caused to react with a freshly prepared solution of α-glucose, and the NADH2 is determined by measuring the extinction at 366 nm. The measurement of the acceleration of the formation of NADH2 by mutarotase (compared with a blank without mutarotase) allows the mutarotase activity in the solution used to be calculated.
As soon as the extinction is constant, the start is made with 0.10 ml of solution 4 in each case.
A fresh glucose solution is prepared for each measurement. It is absolutely necessary to adhere to the following procedure in order to allow for the existing mutarotation: a 150 ml beaker is filled with 100 ml of distilled water and the temperature is adjusted to 20° C. The beaker is evenly stirred, 30 mg of α-glucose are added, the stopwatch is started and the time is marked on the recorder chart. Mixing takes place for 30 seconds. Within the next 15 seconds, the glucose solution is pipetted into the cell, the cell content is thoroughly mixed and, after the expiration of these 15 seconds, the increase in extinction is recorded. The measurment is taken at 366 nm, layer thickness 1 cm, cell temperature 25° C.
For evaluation, a tangent is put to the linear part at the origin of the recording curve, and ΔE/minute is read off; subtraction of the blank from the analysis value gives a value of ΔΔE/minute, which is inserted into the following calculation equation:
Enzyme activity=ΔΔE/minute×4.09 U of mutarotase per ml of […]

Test [2] has as its target mutarotase from bovine kidneys (Bos taurus, UniProt Q5EA79). Conditions: read-out: Michaelis constant (KM); glucose determination context.
Test [3] deals with mutarotase from Aspergillus niger. Conditions: read-out: Michaelis constant (KM); Biochim. Biophys. Acta 662, 285 (1981); cited from earlier work.

Sequence of aldose-1-epimerase (mutarotase, EC 5.1.3.3) from Acinetobacter calcoaceticus (P05149 21-381): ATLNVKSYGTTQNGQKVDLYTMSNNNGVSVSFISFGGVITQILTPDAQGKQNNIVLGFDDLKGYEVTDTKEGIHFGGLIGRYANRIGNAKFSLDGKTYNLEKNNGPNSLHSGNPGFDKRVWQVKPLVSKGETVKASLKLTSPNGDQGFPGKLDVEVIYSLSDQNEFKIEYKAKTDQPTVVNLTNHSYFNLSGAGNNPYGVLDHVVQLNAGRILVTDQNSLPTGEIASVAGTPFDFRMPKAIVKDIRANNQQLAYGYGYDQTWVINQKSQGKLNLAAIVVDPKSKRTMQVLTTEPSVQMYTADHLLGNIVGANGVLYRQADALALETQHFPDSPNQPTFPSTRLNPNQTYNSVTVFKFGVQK
Sequence of mutarotase from bovine kidneys (Q5EA79 whole entry): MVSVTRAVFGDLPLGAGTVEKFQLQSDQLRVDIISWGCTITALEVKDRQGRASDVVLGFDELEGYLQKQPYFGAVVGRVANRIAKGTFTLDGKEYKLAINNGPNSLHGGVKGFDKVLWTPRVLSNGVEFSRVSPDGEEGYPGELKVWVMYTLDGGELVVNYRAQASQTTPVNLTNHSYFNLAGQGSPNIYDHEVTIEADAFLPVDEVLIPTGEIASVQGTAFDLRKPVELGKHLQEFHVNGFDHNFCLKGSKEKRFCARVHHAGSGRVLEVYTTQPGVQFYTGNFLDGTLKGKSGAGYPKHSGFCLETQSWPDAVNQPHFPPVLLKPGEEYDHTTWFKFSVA

Take galactose: in test [1], the “Michaelis constant for galactose compared with glucose” value is listed as “same Michaelis constant” and the “Michaelis constant for galactose relative to that of the mutarotase from bovine kidneys” value was 3 times.
Consider glucose, for which the Km in test [1] (read-out: Michaelis constant (KM) for glucose, mutarotase according to the invention) was 6 to 8 mM; in test [2], 18 to 20 mM; in test [3], 50 mM.
